Measurements: ChEMBL document CHEMBL5226307, “Advances in Cyclic Nucleotide Phosphodiesterase-Targeted PET Imaging and Drug Discovery” (J Med Chem, 2021)
Each block holds one compound with its values, some of them ahead of it.

Tests used:
[1] = Metabolic stability in baboon brain assessed as parent compound remaining incubated for 90 mins; format: ADME, tissue-based, Papio; conditions: read-out: Stability
[2] = Metabolic stability in non human primates plasma assessed as parent compound remaining incubated for 70 mins by HPLC analysis; format: ADME, cell-free; conditions: read-out: Stability
[3] = target: Dual specificity calcium/calmodulin-dependent 3',5'-cyclic nucleotide phosphodiesterase 1B (Homo sapiens, UniProt Q01064); test: Inhibition of human PDE1B
[4] = target: T1, cGMP-specific 3',5'-cyclic phosphodiesterase (Homo sapiens, UniProt O76074); test: Inhibition of human PDE5
[5] = target: T2, cGMP-dependent 3',5'-cyclic phosphodiesterase (Homo sapiens, UniProt O00408); test: Inhibition of human PDE2
[6] = target: High affinity 3',5'-cyclic-AMP phosphodiesterase 7A (Homo sapiens, UniProt Q13946); test: Inhibition of human PDE7A1
[7] = target: 3',5'-cyclic-AMP phosphodiesterase 4A (Homo sapiens, UniProt P27815); test: Inhibition of human PDE4A
[8] = target: Dual specificity calcium/calmodulin-dependent 3',5'-cyclic nucleotide phosphodiesterase 1C (Homo sapiens, UniProt Q14123); test: Inhibition of human PDE1C
[9] = target: T3, cAMP and cAMP-inhibited cGMP 3',5'-cyclic phosphodiesterase 10A (Rattus norvegicus, UniProt Q9QYJ6)
T3 sequence (Q9QYJ6 whole entry): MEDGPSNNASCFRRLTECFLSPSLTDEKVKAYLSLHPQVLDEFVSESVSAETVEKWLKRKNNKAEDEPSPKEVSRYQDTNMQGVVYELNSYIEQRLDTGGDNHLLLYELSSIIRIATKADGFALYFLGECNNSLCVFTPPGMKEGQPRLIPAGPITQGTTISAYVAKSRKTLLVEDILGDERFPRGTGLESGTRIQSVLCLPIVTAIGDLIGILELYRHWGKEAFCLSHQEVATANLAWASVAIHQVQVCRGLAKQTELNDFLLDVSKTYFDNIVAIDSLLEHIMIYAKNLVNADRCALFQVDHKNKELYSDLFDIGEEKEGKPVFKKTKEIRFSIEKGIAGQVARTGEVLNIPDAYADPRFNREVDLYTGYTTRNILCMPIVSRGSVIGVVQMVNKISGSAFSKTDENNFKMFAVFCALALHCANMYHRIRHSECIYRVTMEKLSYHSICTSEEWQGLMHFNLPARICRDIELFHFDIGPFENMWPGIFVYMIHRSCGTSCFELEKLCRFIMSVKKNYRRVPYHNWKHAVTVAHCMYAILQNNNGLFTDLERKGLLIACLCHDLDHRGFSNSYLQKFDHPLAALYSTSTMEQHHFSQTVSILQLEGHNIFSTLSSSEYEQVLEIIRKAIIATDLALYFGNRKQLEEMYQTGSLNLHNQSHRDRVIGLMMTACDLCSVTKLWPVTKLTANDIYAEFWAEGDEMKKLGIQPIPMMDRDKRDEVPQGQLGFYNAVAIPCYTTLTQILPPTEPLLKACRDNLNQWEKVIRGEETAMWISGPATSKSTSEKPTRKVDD

[10] = Metabolic stability in cynomolgus monkey assessed as parent compound remaining incubated for 30 mins in presence of NADPH; format: ADME, Macaca fascicularis; conditions: read-out: Stability
[11] = target: T4, cAMP and cAMP-inhibited cGMP 3',5'-cyclic phosphodiesterase 10A (Homo sapiens, UniProt Q9Y233); test: Inhibition of PDE10A (unknown origin)
[12] = target: T1, cGMP-specific 3',5'-cyclic phosphodiesterase; test: Inhibition of PDE5A (unknown origin)
[13] = target: T1, cGMP-specific 3',5'-cyclic phosphodiesterase; test: Binding affinity to PDE5 (unknown origin); conditions: tested as the 18F-labelled form
[14] = target: T1, cGMP-specific 3',5'-cyclic phosphodiesterase; test: Inhibition of PDE5 (unknown origin)
[15] = target: Phosphodiesterase 7 (Homo sapiens, UniProt Q13946+Q9NP56); test: Inhibition of PDE7 (unknown origin); format: protein assay
[16] = Stability in mouse brain measured at 15 mins; format: ADME, tissue-based; conditions: read-out: Stability
[17] = target: Phosphodiesterase 4 (Homo sapiens, UniProt P27815+Q08499+Q07343+Q08493); test: Binding affinity to human PDE4 assessed as dissociation constant; format: protein assay
[18] = target: T4, cAMP and cAMP-inhibited cGMP 3',5'-cyclic phosphodiesterase 10A; test: Inhibition of human PDE10
[19] = target: Dual 3',5'-cyclic-AMP and -GMP phosphodiesterase 11A (Homo sapiens, UniProt Q9HCR9); test: Inhibition of human PDE11
[20] = Drug uptake in NMRI mouse lung assessed as maximum standardized uptake value incubated for 30 mins; format: ADME, tissue-based; conditions: in vivo, 0.5 h
[21] = Drug uptake in human putamen nucleus assessed as standardized uptake value; format: ADME, tissue-based
[22] = Drug uptake in human caudate nucleus assessed as standardized uptake value; format: ADME, tissue-based
[23] = Drug uptake in human globus pallidus assessed as standardized uptake value; format: ADME, tissue-based
[24] = target: T4, cAMP and cAMP-inhibited cGMP 3',5'-cyclic phosphodiesterase 10A; test: Binding affinity to PDE10A (unknown origin) assessed as dissociation constant
[25] = Stability in human plasma assessed as parent compound remaining after 120 mins; format: ADME, cell-free; conditions: read-out: Stability
[26] = target: T4, cAMP and cAMP-inhibited cGMP 3',5'-cyclic phosphodiesterase 10A; test: Inhibition of human PDE10A
[27] = target: T2, cGMP-dependent 3',5'-cyclic phosphodiesterase; test: Inhibition of human PDE2A
[28] = target: Phosphodiesterase 1 (Homo sapiens, UniProt P54750+Q01064+Q14123); test: Inhibition of PDE1 (unknown origin); format: protein assay
[29] = Drug uptake in pig myocardium assessed as standardized uptake value; format: ADME, tissue-based, Sus scrofa; conditions: in vivo
[30] = Lipophilicity, logD of the compound in Octanol/potassium phosphate buffer at pH 7.4 after 1 hr by HPLC analysis; format: physicochemical
[31] = Drug uptake in mouse striatum; format: ADME, tissue-based; conditions: in vivo
[32] = Metabolic stability in mouse brain assessed as parent compound remaining incubated for 30 mins by HPLC analysis; format: ADME, tissue-based; conditions: read-out: Stability
[33] = Metabolic stability in mouse plasma assessed as parent compound remaining incubated for 30 mins by HPLC analysis; format: ADME, cell-free; conditions: read-out: Stability
[34] = Drug uptake in mouse brown adipose tissue; format: ADME, tissue-based; conditions: in vivo
[35] = Drug uptake in mouse striatum assessed as standardized uptake value; format: ADME, tissue-based; conditions: in vivo
[36] = Toxicity in mouse assessed as body weight loss at 10 mg/kg/day, po; format: organism-based; conditions: in vivo
[37] = Drug uptake in NMRI mouse lung incubated for 30 mins relative to control; format: ADME, tissue-based; conditions: in vivo, 0.5 h
[38] = target: T4, cAMP and cAMP-inhibited cGMP 3',5'-cyclic phosphodiesterase 10A; test: Binding affinity to full length human PDE10A assessed as dissociation constant using [3H]-cAMP as substrate
[39] = target: T4, cAMP and cAMP-inhibited cGMP 3',5'-cyclic phosphodiesterase 10A; test: Binding affinity to full length human PDE10A assessed as dissociation constant

T2 sequence (O00408 whole entry): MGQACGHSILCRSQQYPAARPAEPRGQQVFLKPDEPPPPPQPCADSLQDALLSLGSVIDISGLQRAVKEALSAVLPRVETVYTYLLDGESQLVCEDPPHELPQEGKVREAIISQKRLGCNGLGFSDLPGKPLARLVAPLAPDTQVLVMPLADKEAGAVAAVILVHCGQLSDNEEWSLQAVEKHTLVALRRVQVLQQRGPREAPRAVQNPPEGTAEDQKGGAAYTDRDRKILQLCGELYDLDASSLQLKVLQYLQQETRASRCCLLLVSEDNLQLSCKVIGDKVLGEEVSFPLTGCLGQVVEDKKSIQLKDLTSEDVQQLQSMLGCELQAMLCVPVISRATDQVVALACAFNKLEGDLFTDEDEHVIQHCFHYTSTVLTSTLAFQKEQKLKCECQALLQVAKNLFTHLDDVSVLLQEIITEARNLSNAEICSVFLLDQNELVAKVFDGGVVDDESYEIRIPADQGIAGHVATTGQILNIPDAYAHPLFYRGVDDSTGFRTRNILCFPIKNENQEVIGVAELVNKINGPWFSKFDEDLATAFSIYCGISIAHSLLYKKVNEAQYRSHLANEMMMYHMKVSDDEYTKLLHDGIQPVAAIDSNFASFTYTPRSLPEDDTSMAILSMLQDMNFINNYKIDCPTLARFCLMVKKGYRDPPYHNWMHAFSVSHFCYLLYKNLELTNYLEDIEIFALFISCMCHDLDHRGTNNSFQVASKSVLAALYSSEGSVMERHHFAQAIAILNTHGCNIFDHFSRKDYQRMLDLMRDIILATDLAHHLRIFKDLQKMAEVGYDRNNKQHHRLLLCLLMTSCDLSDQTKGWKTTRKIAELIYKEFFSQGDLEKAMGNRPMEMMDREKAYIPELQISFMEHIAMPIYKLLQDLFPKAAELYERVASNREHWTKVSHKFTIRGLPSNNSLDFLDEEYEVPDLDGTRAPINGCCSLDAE
T4 sequence (Q9Y233 whole entry): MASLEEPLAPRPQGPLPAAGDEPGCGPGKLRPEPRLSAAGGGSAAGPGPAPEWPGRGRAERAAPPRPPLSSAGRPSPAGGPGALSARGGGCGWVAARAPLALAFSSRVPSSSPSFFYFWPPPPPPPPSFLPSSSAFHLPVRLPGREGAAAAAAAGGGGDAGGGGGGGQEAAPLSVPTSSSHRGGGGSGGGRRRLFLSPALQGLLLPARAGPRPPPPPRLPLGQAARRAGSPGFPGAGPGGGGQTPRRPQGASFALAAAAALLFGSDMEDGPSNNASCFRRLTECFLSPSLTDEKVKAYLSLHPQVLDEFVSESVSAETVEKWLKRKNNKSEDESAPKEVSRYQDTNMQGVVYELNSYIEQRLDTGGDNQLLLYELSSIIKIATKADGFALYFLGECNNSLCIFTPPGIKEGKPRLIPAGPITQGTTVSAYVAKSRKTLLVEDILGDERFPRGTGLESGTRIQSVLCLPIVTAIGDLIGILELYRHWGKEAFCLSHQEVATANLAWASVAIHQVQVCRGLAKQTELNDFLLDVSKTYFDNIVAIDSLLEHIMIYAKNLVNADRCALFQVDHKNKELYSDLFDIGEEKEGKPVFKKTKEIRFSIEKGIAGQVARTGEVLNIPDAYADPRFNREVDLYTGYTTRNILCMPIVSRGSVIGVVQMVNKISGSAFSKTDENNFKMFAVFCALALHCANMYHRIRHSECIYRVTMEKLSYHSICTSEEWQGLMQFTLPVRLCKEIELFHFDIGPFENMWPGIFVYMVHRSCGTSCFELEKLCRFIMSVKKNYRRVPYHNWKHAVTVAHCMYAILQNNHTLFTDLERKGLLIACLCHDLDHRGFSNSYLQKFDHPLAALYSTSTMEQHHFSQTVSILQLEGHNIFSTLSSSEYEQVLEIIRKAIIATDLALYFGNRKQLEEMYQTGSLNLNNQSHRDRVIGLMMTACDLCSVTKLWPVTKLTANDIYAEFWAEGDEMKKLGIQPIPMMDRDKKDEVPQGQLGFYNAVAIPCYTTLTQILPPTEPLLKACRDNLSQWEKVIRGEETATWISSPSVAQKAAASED
3',5'-cyclic-AMP phosphodiesterase 4A, sequence (P27815 whole entry): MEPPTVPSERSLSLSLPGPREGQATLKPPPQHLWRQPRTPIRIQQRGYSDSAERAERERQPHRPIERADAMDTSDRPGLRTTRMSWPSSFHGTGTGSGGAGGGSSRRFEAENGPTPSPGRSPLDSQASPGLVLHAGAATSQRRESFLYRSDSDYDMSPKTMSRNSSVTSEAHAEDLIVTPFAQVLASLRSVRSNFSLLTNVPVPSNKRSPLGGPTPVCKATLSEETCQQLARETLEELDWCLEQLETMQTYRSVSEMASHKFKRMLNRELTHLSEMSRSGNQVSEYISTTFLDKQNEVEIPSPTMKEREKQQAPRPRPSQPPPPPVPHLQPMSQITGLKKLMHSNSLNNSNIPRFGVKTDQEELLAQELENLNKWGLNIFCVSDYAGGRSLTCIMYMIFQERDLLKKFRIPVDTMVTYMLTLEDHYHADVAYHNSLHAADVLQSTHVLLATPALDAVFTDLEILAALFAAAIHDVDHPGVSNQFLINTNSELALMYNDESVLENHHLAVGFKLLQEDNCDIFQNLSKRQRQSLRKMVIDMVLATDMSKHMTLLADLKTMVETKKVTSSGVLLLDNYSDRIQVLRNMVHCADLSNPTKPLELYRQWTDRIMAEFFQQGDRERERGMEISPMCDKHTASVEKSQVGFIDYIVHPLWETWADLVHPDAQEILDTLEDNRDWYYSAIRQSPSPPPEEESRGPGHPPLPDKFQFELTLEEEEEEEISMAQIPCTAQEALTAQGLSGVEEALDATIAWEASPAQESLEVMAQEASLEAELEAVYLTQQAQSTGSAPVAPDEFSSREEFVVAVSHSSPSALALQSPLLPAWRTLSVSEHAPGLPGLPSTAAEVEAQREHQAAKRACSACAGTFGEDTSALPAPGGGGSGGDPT
Dual 3',5'-cyclic-AMP and -GMP phosphodiesterase 11A, sequence (Q9HCR9 whole entry): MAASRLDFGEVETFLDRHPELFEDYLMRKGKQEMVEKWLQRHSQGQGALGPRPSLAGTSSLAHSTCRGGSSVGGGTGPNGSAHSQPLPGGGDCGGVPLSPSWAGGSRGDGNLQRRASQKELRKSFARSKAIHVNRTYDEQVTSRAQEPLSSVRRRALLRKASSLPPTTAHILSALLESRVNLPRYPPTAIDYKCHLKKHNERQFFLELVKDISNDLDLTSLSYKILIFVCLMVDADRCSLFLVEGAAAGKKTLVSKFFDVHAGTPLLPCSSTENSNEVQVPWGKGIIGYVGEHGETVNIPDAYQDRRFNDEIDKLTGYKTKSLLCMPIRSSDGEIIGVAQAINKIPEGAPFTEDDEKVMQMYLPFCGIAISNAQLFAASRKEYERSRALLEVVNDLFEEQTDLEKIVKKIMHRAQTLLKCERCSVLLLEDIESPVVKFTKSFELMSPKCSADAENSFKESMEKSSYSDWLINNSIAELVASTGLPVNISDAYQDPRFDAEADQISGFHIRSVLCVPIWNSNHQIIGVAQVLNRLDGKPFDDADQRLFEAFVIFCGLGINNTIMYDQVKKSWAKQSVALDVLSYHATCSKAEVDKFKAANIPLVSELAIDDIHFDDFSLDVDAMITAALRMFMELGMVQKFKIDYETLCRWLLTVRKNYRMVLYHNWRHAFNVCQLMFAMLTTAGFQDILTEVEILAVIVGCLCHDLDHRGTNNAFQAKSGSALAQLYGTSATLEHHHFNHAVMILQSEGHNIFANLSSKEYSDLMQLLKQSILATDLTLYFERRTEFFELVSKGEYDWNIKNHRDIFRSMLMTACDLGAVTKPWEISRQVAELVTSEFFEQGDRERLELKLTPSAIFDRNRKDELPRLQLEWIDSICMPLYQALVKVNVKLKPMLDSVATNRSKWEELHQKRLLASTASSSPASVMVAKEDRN
Dual specificity calcium/calmodulin-dependent 3',5'-cyclic nucleotide phosphodiesterase 1C, sequence (Q14123 whole entry): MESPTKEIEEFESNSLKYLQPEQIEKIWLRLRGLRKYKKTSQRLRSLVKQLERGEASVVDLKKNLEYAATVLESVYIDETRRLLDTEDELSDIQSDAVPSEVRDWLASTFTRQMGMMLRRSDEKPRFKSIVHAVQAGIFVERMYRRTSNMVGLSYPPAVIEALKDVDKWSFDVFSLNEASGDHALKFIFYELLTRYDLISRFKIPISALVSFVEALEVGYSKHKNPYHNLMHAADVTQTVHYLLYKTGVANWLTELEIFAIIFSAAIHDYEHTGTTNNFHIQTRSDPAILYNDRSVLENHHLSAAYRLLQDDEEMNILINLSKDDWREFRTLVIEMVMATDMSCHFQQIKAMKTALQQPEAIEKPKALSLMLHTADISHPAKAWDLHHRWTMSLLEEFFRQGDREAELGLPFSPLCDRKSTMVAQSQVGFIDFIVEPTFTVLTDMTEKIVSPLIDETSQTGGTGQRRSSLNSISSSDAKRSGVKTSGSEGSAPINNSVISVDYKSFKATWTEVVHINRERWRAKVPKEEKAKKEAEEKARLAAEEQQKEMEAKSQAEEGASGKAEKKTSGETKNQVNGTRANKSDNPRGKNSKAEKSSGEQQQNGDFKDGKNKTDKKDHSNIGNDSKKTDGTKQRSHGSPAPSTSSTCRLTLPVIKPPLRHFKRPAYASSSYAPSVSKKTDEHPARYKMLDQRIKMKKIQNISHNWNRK
Dual specificity calcium/calmodulin-dependent 3',5'-cyclic nucleotide phosphodiesterase 1B, sequence (Q01064 whole entry): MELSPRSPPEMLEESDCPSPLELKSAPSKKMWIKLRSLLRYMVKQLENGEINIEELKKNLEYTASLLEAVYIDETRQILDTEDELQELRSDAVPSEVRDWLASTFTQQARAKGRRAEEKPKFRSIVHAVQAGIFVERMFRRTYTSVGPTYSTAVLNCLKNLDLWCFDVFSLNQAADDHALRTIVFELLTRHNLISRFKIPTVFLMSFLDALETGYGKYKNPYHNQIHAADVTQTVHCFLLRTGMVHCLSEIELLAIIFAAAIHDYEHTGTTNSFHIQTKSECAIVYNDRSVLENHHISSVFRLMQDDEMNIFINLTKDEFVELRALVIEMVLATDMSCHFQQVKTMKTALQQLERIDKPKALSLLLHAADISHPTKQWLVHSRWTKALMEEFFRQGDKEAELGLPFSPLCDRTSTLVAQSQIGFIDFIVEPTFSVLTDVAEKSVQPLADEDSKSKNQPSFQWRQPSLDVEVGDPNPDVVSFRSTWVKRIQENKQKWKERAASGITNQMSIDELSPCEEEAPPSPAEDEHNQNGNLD

remaining at 1.5 h [1]: 30%
remaining at 1.167 h [2]: 24%
SMILES: [11CH3]n1cc(-c2ccncc2)c(-c2ccc(OCc3ccc4ccccc4n3)cc2)n1

IC50 [3]: 62 µM
IC50 [4]: 62 µM
IC50 [5]: 62 µM
IC50 [6]: 260 nM
IC50 [7]: 62 µM
IC50 [8]: 62 µM
SMILES: Cc1ccc([N+](=O)[O-])cc1S(=O)(=O)N(C)C

IC50 [9]: 0.39 nM
remaining at 0.5 h [10]: 27%
SMILES: Cc1ccc(C)n2nc(CCc3nc(-c4ccccc4)cn3[11CH3])nc12

IC50 [11]: 0.18 nM
SMILES: CC(=O)N1CCC(c2nccnc2Oc2ccc(C(=O)c3nc4ccccc4[nH]3)cc2)CC1

remaining at 1.5 h [1]: 50%
IC50 [11]: 0.06 nM
SMILES: [11CH3]N(c1cc(N2CC[C@@H](F)C2)nc2cc(-c3cnc4c(n3)CCCC4)nn12)C1CCOCC1

IC50 [12]: 5.92 nM
Bmax [13]: 0.1 nM
IC50 [14]: 1.86 nM
SMILES: COc1ccc(CNc2c(CO)cnc3c(N4CC(F)C4)cc(C#N)cc23)cc1Cl

IC50 [11]: 0.13 nM
SMILES: CC([18F])C(=O)N1CCC(c2nccnc2Oc2ccc(C(=O)c3nc4ccccc4[nH]3)cc2)CC1 (stereo not drawn)

IC50 [15]: 17 nM
remaining at […] [16]: 84%
SMILES: O=C1Nc2c(Cl)ccc(OCC[18F])c2C2(CCCCC2)N1

Kd [17]: 0.26 nM
SMILES: O=C1C[C@H](c2ccc(OCF)c(OC3CCCC3)c2)CN1

IC50 [12]: 5.92 nM
Bmax [13]: 0.1 nM
SMILES: CCc1cc(C#N)cc2c(NCc3ccc(OC)c(Cl)c3)c(COCCF)cnc12

IC50 [18]: ≤ 10 µM
IC50 [19]: ≤ 10 µM
SMILES: CC(C)C(=O)c1c(C(C)C)nn2ccccc12 [IBUDILAST]

SUVmax [20]: 8.9
SMILES: CCCc1nc(C)c2c(=O)[nH]c(-c3cc(S(=O)(=O)N4CCN(CC[18F])CC4)ccc3OCC)nn12

SUV [21]: 0.7%
SUV [22]: 0.7%
SUV [23]: 1.5%
Kd [24]: 0.029 nM
remaining at 2 h [25]: 20%
SMILES: Cc1ccc2c(=O)n(-c3ccc4cnn(CC[18F])c4c3)c(CCN3C(=O)c4cccc(OC(C)C)c4C3=O)nc2c1

IC50 [26]: 7.3 nM
IC50 [27]: 913 nM
SMILES: COc1ccc2nnc3c(C)nc(-c4cc(OCCCC[18F])ccc4F)n3c2n1

Kd [24]: 0.097 nM
remaining at 2 h [25]: 20%
SMILES: Cc1ccc2c(=O)n(-c3ccc(OC[18F])cc3)c(CCN3C(=O)c4cccc(OC(C)C)c4C3=O)nc2c1

IC50 [28]: 170 nM
SMILES: CCC(CC)Nc1ncnc2c(OC)c(OC)ccc12

IC50 [11]: 0.77 nM
SMILES: [11CH3]Oc1cn(-c2ccc(C3CCOCC3)cc2F)nc(-c2ccnn2-c2ccccc2)c1=O

SUV [29]: 2.6
SMILES: CCCCN1C(=O)[C@H]2Cc3c([nH]c4ccccc34)[C@@H](c3ccc(OC)cc3)N2C1=O

logD at 1 h [30]: 3.19
SMILES: CC(C)Oc1cccc2c1C(=O)N(CCc1nc3ccccc3c(=O)n1-c1ccc(O[11CH3])cc1)C2=O

IC50 [11]: 2 nM
SMILES: Cc1cnc(COc2ccc(-c3nn(CC[18F])cc3-c3ccncc3)cc2)c(C)c1

SMILES: COc1ccc2nnc3c(C)nc(-c4cc(OCCC[18F])ccc4F)n3c2n1
IC50 [26]: 7.3 nM
IC50 [27]: 11.4 nM

SUV [29]: 3.8
SMILES: CCCCN1C(=O)[C@H]2Cc3c([nH]c4ccccc34)[C@@H](c3ccc(O[11CH3])cc3)N2C1=O

IC50 [11]: 1.9 nM
SMILES: COc1cc2nncc(-c3cnc(NC(C)C)c(C)c3)c2cc1O[11CH3]

IC50 [28]: 13 nM
SMILES: CC(C)Cn1c(=O)n(C)c(=O)c2c(Nc3ccccc3)n(Cc3ccc(C4CCCN4C)cc3)nc21 (stereo not drawn)

IC50 [26]: > 1000 nM
SMILES: CCCCOc1ccc(F)c(-c2nc(C)c3nnc4ccc(OCC[18F])nc4n23)c1

Drug uptake [31]: 130%
remaining at 0.5 h [32]: 88%
remaining at 0.5 h [33]: 64%
Drug uptake [34]: 30%
SUV [35]: 2.7
SMILES: COc1cc(Br)cc2c1nc(C)c1c(C)nc(-c3ccc([18F])nc3)n12

SMILES: Cn1cc(-c2ccncc2)c(-c2ccc(OCc3ccc4ccccc4n3)cc2)n1 [MARDEPODECT]
Activity [36]: 8.61%

IC50 [15]: 1.7 nM
remaining at […] [16]: 74%
SMILES: [11CH3]n1nnc(COc2ccc(Cl)c3c2C2(CCCCC2)NC(=O)N3)n1

Drug uptake [37]: > 86%
SUVmax [20]: 8
SMILES: CCCc1nn(C)c2c(=O)[nH]c(-c3cc(S(=O)(=O)N4CCN([11CH3])CC4)ccc3OCC)nc12

IC50 [11]: 0.5 nM
Kd [38]: 3.17 nM
Kd [39]: 6.62 nM
SMILES: [18F]CCn1cc(-c2ccncc2)c(-c2ccc(OCc3ccc4ccccc4n3)cc2)n1
